# Earlier results as cited in patent US8247398B2, “Zinc complexes of natural amino acids for treating elevated copper caused toxicities” (SSV Therapeutics, Inc., priority 2007, dated 2012).
molecule,measurement,setting,value
"O=S(=O)([O-])[O-].[Zn+2] [Zinc sulfate, zinc sulfate]",patient discomfort compared with zinc acetate,Wilson's disease therapy,even more patient discomfort
CC(=O)[O-].CC(=O)[O-].[Zn+2] [zinc acetate],"patients encountering persistent gastric irritation, burning sensation, and nausea",patients receiving zinc acetate therapy,About 10%
same,time before therapy is tolerable to the patient,taken on an empty stomach or in-between meals,several days or weeks
N[C@@H](Cc1c[nH]cn1)C(=O)O.[Zn] [zinc histidine],metallothionein production in livers,"metallothionein; oral administration, male Wistar rat livers, within 12 hours",14-39 fold over control group
zinc dipicolinate,"metallothionein induction in the epidermis, sebaceous glands and hair follicles",metallothionein; same test as zinc histidine chelate (rats),substantially raised
